Assay results from US12729177B2, “Small molecules promoting sympathetic nerve regeneration” (OREGON HEALTH & SCIENCE UNIVERSITY, priority 2020, dated 2026).

Assays:
sympathetic axons = assay: Compartmentalized cultures: microfluidic chambers, axonal compartment coated with CSPGs; conditions: added to the axonal (distal) compartment for 3 hours
PTPα catalytic activity = conditions: read-out: IC50 against PTPα catalytic activity in vitro; cited from earlier work
[1] = molecular target: T1, PTPσ D1D2 catalytic domain (Homo sapiens, UniProt Q13332); conditions: for D1 phosphatase activity (pNPP): 1 μM HJ-02, orthovanadate 10 mM
T1 sequence (Q13332 1304-1948 limits assumed): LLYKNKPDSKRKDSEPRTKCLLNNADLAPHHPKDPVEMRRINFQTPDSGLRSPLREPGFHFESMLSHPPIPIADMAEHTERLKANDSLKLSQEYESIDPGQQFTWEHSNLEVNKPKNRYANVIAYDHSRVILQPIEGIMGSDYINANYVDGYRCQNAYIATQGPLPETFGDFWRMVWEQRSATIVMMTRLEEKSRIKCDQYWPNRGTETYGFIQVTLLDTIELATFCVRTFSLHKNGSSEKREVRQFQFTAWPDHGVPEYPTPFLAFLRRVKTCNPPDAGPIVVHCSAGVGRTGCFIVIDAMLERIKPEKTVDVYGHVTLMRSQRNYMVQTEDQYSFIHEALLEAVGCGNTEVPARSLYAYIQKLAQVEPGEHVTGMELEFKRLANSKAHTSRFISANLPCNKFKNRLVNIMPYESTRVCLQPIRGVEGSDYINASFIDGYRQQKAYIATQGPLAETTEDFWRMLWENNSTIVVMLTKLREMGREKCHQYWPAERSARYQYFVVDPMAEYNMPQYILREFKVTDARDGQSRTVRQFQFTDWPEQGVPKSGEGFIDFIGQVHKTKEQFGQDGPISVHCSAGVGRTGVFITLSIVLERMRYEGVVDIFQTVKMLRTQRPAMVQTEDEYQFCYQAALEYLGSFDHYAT

[2] = test system: panel of other protein phosphatases; assay: Screen against a panel of other protein phosphatases; assay type: biochemical
[3] = test system: sympathetic nerve density in the infarct; assay: Sympathetic reinnervation of the infarct after myocardial ischemia-reperfusion (TH+ fiber density); assay type: in vivo, mouse; conditions: mice, s.c. daily days 3-10 after MI; HJ-01, HJ-02 10 mg/kg, ISP 10 μmol; day 14
cardiac vasculature = assay: Vascular immunohistochemistry (α-SMA, CD31) after MI; assay type: in vivo, mouse; conditions: 14 days after MI; infarct, peri-infarct, remote myocardium
sympathetic neurons = assay: Sympathetic outgrowth assay: dissociated sympathetic neurons on laminin or laminin and CSPGs, live cell imaging; conditions: 10 ng/mL NGF, imaging over 30 hr
[4] = test system: PTPσ inhibition of TrkB signaling (ERK1/2 phosphorylation); assay: TrkB stimulated ERK phosphorylation in TrkB-HEK-293t cells co-expressing full-length PTPσ; conditions: BDNF-induced
[5] = test system: cardiac output and ejection fraction; assay: Echocardiography of cardiac function after MI; assay type: in vivo, mouse; conditions: MI mice, response to isoproterenol
infarct size = assay: Infarct size after myocardial ischemia-reperfusion; assay type: in vivo, mouse; conditions: MI mice, treatment beginning three days after reperfusion (days 3-10); infarct as percentage of LV
ISO-stimulated PVCs = assay: Isoproterenol-induced arrhythmias after MI, ECG telemetry; assay type: in vivo, mouse; conditions: MI mice, s.c. daily days 3-10; HJ-01, HJ-02 10 mg/kg, ISP 10 μmol; 10 μg isoproterenol, 14 days after MI
TrkA-PTPσ interaction = TrkA-PTPσ interaction (Homo sapiens, UniProt Q13332); assay: Immunoprecipitation assay: TrkA-RFP pulldown of PTPσ in transfected HEK-293t cells; conditions: 1 uM; HEK-293 cells treated with CSPGs and NGF; normalized to vehicle
Sequence of TrkA-PTPσ interaction (Q13332 30-1948): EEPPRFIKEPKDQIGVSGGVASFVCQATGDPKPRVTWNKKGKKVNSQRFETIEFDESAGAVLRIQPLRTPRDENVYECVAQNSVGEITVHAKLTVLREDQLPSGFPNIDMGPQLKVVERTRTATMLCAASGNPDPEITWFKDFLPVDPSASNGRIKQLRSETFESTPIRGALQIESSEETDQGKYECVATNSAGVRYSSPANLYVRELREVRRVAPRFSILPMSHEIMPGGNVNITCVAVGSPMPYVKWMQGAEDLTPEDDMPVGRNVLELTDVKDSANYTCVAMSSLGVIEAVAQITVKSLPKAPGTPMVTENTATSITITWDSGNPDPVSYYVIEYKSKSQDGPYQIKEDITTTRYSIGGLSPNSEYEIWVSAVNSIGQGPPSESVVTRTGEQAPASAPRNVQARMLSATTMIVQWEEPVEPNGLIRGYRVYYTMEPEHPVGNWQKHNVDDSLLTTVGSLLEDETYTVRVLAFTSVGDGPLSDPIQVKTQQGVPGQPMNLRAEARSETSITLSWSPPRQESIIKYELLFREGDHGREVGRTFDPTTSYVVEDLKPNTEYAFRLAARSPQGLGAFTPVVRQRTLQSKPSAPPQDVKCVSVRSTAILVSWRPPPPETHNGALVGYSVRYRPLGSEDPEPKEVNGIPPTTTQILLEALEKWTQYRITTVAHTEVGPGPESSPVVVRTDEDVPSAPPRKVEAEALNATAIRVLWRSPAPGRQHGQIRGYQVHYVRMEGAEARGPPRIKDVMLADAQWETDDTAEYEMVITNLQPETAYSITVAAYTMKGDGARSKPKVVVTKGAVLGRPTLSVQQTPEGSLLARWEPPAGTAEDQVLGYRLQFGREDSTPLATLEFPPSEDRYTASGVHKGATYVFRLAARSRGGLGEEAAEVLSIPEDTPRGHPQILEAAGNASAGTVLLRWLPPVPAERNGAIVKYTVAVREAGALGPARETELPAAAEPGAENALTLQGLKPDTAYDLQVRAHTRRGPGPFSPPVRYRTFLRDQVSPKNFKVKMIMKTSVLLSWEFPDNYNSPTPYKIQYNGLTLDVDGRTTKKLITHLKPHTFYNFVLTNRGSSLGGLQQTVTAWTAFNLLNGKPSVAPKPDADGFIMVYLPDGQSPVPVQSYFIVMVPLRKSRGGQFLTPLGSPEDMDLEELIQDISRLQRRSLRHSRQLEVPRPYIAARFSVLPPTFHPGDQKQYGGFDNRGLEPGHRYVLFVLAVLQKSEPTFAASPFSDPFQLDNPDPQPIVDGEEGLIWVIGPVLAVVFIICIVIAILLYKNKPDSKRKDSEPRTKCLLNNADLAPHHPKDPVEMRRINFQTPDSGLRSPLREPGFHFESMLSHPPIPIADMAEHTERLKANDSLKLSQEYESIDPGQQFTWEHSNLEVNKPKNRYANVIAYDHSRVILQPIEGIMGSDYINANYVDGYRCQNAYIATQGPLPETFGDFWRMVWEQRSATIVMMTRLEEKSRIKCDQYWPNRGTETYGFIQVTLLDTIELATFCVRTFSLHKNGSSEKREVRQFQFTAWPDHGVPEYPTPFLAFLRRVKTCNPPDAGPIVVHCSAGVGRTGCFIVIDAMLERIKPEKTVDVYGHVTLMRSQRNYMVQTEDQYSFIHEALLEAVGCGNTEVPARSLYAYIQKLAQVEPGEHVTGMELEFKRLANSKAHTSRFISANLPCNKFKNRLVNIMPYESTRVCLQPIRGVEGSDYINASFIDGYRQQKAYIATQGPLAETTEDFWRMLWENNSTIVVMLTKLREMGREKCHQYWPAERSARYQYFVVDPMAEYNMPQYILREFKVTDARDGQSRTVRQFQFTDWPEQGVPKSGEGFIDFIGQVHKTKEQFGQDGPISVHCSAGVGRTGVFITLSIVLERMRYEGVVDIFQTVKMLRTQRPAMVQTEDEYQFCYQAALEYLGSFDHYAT

chondroitinase ABC [reference compound]
defasiculation of axon bundles growing over CSPGs (sympathetic axons): stimulated the defasiculation of axon bundles | rate of axon outgrowth over CSPGs (sympathetic axons): enhanced the rate of axon outgrowth

CC1(C)Cc2c(O)c(C=O)c3c(c2C1)C(=O)OC(O)C3 (stereo not drawn) [Illudalic acid]
IC50 (PTPα catalytic activity): ~1000 nM

[Na+].[Na+].[Na+].[O]=[V]([O-])([O-])[O-] [orthovanadate, sodium-orthovanadate, reference compound]
D1 phosphatase activity (pNPP) [1]: negligible phosphatase activity

C=CC(=O)Nc1cc(OC)c(OCC2CCCCC2)cc1C(=O)O [HJ-01, 2-acrylamido-5-(cyclohexylmethoxy)-4-methoxybenzoic Acid]
inhibition of other protein phosphatases in the screen [2]: neither HJ-01 nor HJ-02 inhibited any of the protein phosphatases | nerve density within the infarct [3]: restored nerve density within the infarct to the density in sham and uninjured peri-infarct myocardium | defasiculation of axon bundles growing over CSPGs (sympathetic axons): stimulated the defasiculation of axon bundles | rate of axon outgrowth over CSPGs (sympathetic axons): enhanced the rate of axon outgrowth | density of vasculature (α-SMA, CD31) (cardiac vasculature): no difference in the density of vasculature between any treatment groups | concentration fully restoring sympathetic axon outgrowth over CSPGs (sympathetic neurons): 100 nM | catalytic activity of recombinant PTPσ ([1]; concluding statement, no concentration printed for HJ-01): do not inhibit the catalytic activity of recombinant PTPσ | concentration rescuing ERK1/2 phosphorylation [4]: 100 nM | beta adrenergic receptor supersensitivity [5]: prevented beta adrenergic receptor supersensitivity | infarct size (infarct size): significantly smaller infarcts compared to vehicle hearts | ISO-stimulated arrhythmias (PVCs) (ISO-stimulated PVCs): had arrhythmias similar to sham mice

CCC(=O)Nc1cc(OC)c(OCC2CCCCC2)cc1C(=O)O [HJ-03, 5-(cyclohexylmethoxy)-4-methoxy-2-propionamidobenzoic Acid]
amount of PTPRS co-immunoprecipitated with TrkA-RFP (TrkA-PTPσ interaction): had no effect

C=CC(=O)Nc1cc(OC)c(OCCCCCC)cc1C(=O)O [HJ-02, 2-acrylamido-5-(hexyloxy)-4-methoxybenzoic Acid]
inhibition of other protein phosphatases in the screen [2]: neither HJ-01 nor HJ-02 inhibited any of the protein phosphatases | nerve density within the infarct [3]: restored nerve density within the infarct to the density in sham and uninjured peri-infarct myocardium | defasiculation of axon bundles growing over CSPGs (sympathetic axons): stimulated the defasiculation of axon bundles | rate of axon outgrowth over CSPGs (sympathetic axons): enhanced the rate of axon outgrowth | density of vasculature (α-SMA, CD31) (cardiac vasculature): no difference in the density of vasculature between any treatment groups | concentration fully restoring sympathetic axon outgrowth over CSPGs (sympathetic neurons): 30 nM | D1 phosphatase activity (pNPP) [1]: did not inhibit D1 phosphatase activity | concentration rescuing ERK1/2 phosphorylation [4]: 10 nM | beta adrenergic receptor supersensitivity [5]: prevented beta adrenergic receptor supersensitivity | infarct size (infarct size): significantly smaller infarcts compared to vehicle hearts | ISO-stimulated arrhythmias (PVCs) (ISO-stimulated PVCs): had arrhythmias similar to sham mice
